This is an account of results in patent US6339160B1 (priority 1997, dated 2002).

Structures are written as SMILES.

For one test, the target named is T1, Gelatinase A (MMP-2) (Homo sapiens, UniProt P08253).
T1 construct: G. Murphy (Strangeways Labs., Cambridge, UK); host or cells: human cultures
T1 sequence (P08253 110-660): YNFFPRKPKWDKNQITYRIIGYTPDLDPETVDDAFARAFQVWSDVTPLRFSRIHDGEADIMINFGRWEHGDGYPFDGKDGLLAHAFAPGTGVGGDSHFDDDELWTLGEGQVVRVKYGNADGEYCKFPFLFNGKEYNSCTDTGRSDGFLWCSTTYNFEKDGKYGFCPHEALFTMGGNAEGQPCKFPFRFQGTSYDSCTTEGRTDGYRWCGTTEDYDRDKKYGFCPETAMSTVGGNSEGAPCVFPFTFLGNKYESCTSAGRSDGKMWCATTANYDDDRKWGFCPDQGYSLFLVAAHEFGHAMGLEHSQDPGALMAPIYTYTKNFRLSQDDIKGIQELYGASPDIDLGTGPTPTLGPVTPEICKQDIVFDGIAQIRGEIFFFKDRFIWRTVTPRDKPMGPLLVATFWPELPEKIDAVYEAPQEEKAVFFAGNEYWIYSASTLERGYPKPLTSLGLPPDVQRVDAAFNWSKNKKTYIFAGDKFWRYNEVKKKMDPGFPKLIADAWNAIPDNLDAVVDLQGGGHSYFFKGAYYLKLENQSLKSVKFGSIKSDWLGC
The test can be described thus: Inhibition of the human enzyme Gelatinase A (MMP-2), fluorescent substrate. In kind it is biochemical. The settings on record: expressed qualitatively; compounds incubated 3 hours at room temperature with enzyme before substrate. Here is the method:
(§1) The snythetized compounds were also tested on the enzyme of human orgin Gelatinase A, known also as MMP-2 (Matrix Metalloproteinase n. 2). The pure enzyme, extracted from human cultures and obtained from Pro. G. Murphy (Strangeways Labs., Cambridge, UK), was first activated with p-amino-mercuryacetate, and proteolytic activity was evidentiated with the use of an artificial fluorescent substratum MCA-PRO-LEU-GLY-LEU-DPA-ALA-ARG-NH2 (Strangeways Labs.), in spectrofluorimeter Perkin Elmer L 50B fixed at 328 nm for excitation and 393 nm for emission. To test inhibitory activity, synthetized compounds were incubated for 3 hours at room temperature in the presence of the enzyme, before adding the substratum.

The next test deals with Adamalysin II (Crotalus adamanteus, UniProt P34179). The test is described as follows: biochemical.
Sequence of Adamalysin II (P34179 whole entry, looked up): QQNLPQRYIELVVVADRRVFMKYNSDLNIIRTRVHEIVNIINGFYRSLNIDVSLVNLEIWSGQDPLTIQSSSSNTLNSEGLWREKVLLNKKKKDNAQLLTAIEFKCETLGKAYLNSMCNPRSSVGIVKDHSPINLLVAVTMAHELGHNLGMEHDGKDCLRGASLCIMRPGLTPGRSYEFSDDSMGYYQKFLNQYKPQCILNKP
For test [1], the target named is T2, Collagenase from neutrophiles (MMP-8) (Homo sapiens, UniProt P22894).
T2 construct: G. Murphy (Strangeways Labs., Cambridge, UK); host or cells: human cell cultures
T2 sequence (P22894 101-467): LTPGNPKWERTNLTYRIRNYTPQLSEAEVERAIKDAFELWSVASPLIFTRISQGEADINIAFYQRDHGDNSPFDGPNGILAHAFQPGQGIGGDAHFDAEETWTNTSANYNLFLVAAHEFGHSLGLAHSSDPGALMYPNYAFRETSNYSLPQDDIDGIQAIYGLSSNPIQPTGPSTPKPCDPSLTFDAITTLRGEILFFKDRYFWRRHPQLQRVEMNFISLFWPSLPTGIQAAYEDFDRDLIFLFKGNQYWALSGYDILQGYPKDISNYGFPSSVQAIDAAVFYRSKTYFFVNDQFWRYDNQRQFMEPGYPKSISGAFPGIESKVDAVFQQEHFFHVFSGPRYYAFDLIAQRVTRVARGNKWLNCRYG
The test is described as follows: Inhibition of human enzyme Collagenase from neutrophiles (MMP-8), fluorescent substrate. In kind it is biochemical. The settings on record: expressed qualitatively; enzyme activated with p-aminomercuryacetate. Here is the method:
as §1
The new synthetized derivatives were also tested on another zinc-dependent metalloproteinase of human orgin: the Collagenase from neutrophiles, also known as MMP-8 (Matrix Metalloproteinase N. 8). The pure enzyme extracted from human cell cultures and obtained from Prof. G. Murphy (Strangeways Labs., Cambridge, UK), was activated with p-aminomercuryacetate (2 hours at 37° C.), and enzymatic activity was followed by the spectrofluorimeter in the same way as described in the previous chapter.

The term IC50 denotes the concentration that inhibits the measured activity by half. The low end stands for higher potency, the high end for lower potency. With `CCOP(=O)(OCC)C(Cc1c[nH]c2ccccc12)NC(=O)[C@H](CC(C)C)NC(=O)c1ccco1` (stereo partly drawn) [Compound n.3a, N-[(furan-2-yl)carbonyl]-L-leucyne-(1)-phosphotryptophan diethylester], the INHIBITION result (on Gelatinase A (MMP-2); in test [1]) was “Fair” each time. Further, at Adamalysin II, the midpoint of inhibition, the IC50, lay at 400 nM.
Turning to `CCOP(=O)(OCC)C(Cc1c[nH]c2ccccc12)NC(=O)[C@H](CC(C)C)NC(=O)c1ccc[nH]1` (stereo partly drawn) [Compound n.3b, N-[(Pyrrol-2-yl)carbonyl]-L-leucyl-(1)-phosphotryptophan diethylester], the INHIBITION result (on Gelatinase A (MMP-2); in test [1]) was “Good” in each case. Also, the concentration for half-maximal inhibition (IC50) against Adamalysin II worked out at 220 nM.
For `CCOP(=O)(OCC)C(Cc1c[nH]c2ccccc12)NC(=O)[C@H](CC(C)C)NC(=O)[C@@H]1CCCN1C(=O)OCc1ccccc1` (stereo partly drawn) [Compound n.3c, N-benzyloxycarbonyl-L-pyrolyl-L-eucyl-(1)-phosphtryptophan diethylester], the INHIBITION entry (on Gelatinase A (MMP-2); in test [1]) was “Good” in each case. Besides, inhibition against Adamalysin II was half-maximal at 22000 nM (IC50).
As for `CCOP(=O)(OCC)C(Cc1c[nH]c2ccccc12)NC(=O)[C@H](CC(C)C)NC(=O)[C@@H]1CCC(=O)O1` (stereo partly drawn) [Compound n.3e, N-{[(S)-(5-oxo-tetrahydrofuran-2-yl)carbonyl]}-L-leucyl-(1)-phosphotryptophan diethylester], the INHIBITION result (on Gelatinase A (MMP-2); in test [1]) was “Fair” in each case. At Adamalysin II, this molecule displayed an IC50 of 550 nM.
For the molecule `CCOP(=O)(OCC)C(Cc1c[nH]c2ccccc12)NC(=O)[C@H](CC(C)C)NC(=O)[C@@H]1CSC(=O)N1` (stereo partly drawn) [Compound n.3f, N-{[(R)-(2-oxo-thiazolidine-4-yl)carbonyl]}-L-leucyl-(1)-phosphotryptophan diethylester], the INHIBITION result is on record as “Fair” on Gelatinase A (MMP-2) and “Good” in test [1]. Half-maximal inhibition at Adamalysin II (IC50) required 1000 nM.
On the same counts, the results for `CC(C)C[C@H](NC(=O)c1ccco1)C(=O)NC(Cc1c[nH]c2ccccc12)P(=O)(OCc1ccccc1)OCc1ccccc1` (stereo partly drawn) [Compound n.9, N-[(Furan-2-yl)carbonyl]-L-leucyl-(1)-phosphotryptophan dibenzylester] are “None”, “Fair” and 7200 nM.
